PubChem BioAssay AID1919002 (Molecular Pharmacology Branch, DTP, NCI, 2023)
pIC50: −log10 of the molar value.

Test system: 743489-274-T-PDC complex spheroid growth
Test: Anticancer human tumor 743489-274-T-PDC patient-derived renal cell carcinoma cell line growth inhibition [AhR]
Conditions: for pIC50: curve of first compound; for viability, T/C: stronger effect = lower value
Excerpt: Multicellular complex tumor spheroid response to aryl hydrocarbon receptor antagonists in combination with a variety of drugs and investigational agents in selected tumor cell lines
The current study was undertaken to assess response to aryl hydrocarbon receptor antagonists in combination with standard-of-care drugs and investigational agents in solid tumor complex spheroid models. Complex spheroids include a stromal component modeled by human endothelial cells (HUVEC) and fibroblasts modeled by human mesenchymal stem cells (MSCs). The concentration ranges selected for each drug and investigational agent were based upon clinically achievable concentrations if the clinical Cmax of the agent was known.
Compounds. The drugs and investigational agents: BAY 2416964 (NSC825713), GNF351 (NSC835774), CH-223191 (NSC835775), CPI-455 (NSC825282), aza-TdCyd (NSC777586), decitabine (NSC127716), belinostat (NSC758774), entinostat (NSC756642), pevonedistat (NSC761192), tazemetostat (NSC777109), talazoparib (NSC765396), olaparib (NSC753686), selinexor (NSC780203), nedisertib (M3814, NSC802822), bortezomib (NSC756655), venetoclax (NSC766270), doxorubicin (NSC123127), elimusertib (BAY189344, NSC800525), ceralasertib (AZD6738, NSC777638), TAK-243 (NSC785004), alisertib (NSC759677), etoposide (NSC141540), topotecan (NSC609699), eribulin (NSC707389), gemcitabine (NSC613327), carboplatin (NSC241240), cisplatin (NSC119875), and SN-38 (NSC673596) were obtained from the National Cancer Institute (NCI) Developmental Therapeutics Program Chemical Repository (32). The FDA-approved anticancer drug set is available from the Developmental Therapeutics Program at https://dtp.cancer.gov/organization/dscb/obtaining/available plates.htm. […] The stock solutions were prepared in dimethyl sulfoxide (DMSO, Sigma-Aldrich, St. Louis, MO, cat. D2650), except for the platinum compounds which were prepared in saline (Quality Biological, Gaithersburg, MD, cat. 114-055-101), at 800-fold the tested concentration and stored at -70 degrees C prior to their use. All drugs and investigational agents were tested over a range starting from a high concentration at or near the clinical Cmax and decreasing in half-log increments. If the clinical Cmax for an agent had not been determined, the highest concentration tested was 10 microM (Table 1).
Cell Culture. All cells were maintained in an incubator at 37 degrees C and 5% CO2 with 95% humidity. The PDC lines were cultured according to standard operating procedures established by the NCI PDMR (https://pdmr.cancer.gov). Briefly, all PDCs were thawed and cultured in Matrigel-coated flasks prepared with a working solution of 1X Ham's F-12 nutrient mix, without supplementation (Invitrogen, Waltham, MA, cat. 11765054), 100 U/mL penicillin-streptomycin (Invitrogen, cat. 15140122), and 2.5% Matrigel (Corning Inc., Corning, NY, cat. 354248) for the first three passages. All PDCs were cultured in complete DMEM/F-12 media containing advanced DMEM/F-12 (Invitrogen, cat. 12634028), 4.9% defined fetal bovine serum, heat inactivated (HyClone Laboratories Inc., Logan, UT, cat. SH30070.03HI), 389 ng/mL hydrocortisone (Sigma-Aldrich, cat. H4001), 9.7 ng/mL human EGF recombinant protein (Invitrogen, cat. PHG0313), 23.4 microg/mL adenine (Sigma-Aldrich, cat. A2786), 97.3 U/mL penicillin-streptomycin (Invitrogen, cat. 15140122), 1.9 mM L-glutamine (Invitrogen, cat. 25030081), and 9.7 microM Y-27632 dihydrochloride (Tocris Bioscience, Bristol, United Kingdom, cat. 1254). The PDCs were cultured in complete DMEM/F12 media without 10 microM Y-27632 dihydrochloride for at least two passages prior to the screen. The established cell lines NCI-H1341 and […] were cultured in DMEM/F-12, HEPES (Invitrogen, cat. 11330032), 5% defined fetal bovine serum (HyClone Laboratories Inc., cat. SH30070.03), ITS premix universal culture supplement [insulin (5 microg/mL), transferrin (5 microg/mL), and selenious acid (5 ng/mL)] […]
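Note: spheroids exposed to agents for 7 days before readout.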
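Throughout, for viability, T/C: 100% = DMSO vehicle control wells.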

Structure (SMILES): O=C(C=Cn1cnc(-c2cc(C(F)(F)F)cc(C(F)(F)F)c2)n1)NNc1cnccn1 + CC(CO)NC(=O)c1cc(-c2ccc(Cl)cc2)nn(-c2cnn(C)c2)c1=O
- pIC50 (second compound 0.1 µM): < 5.52
- pIC50 (second compound 0.316 µM): < 5.52
- pIC50 (second compound 1 µM): < 5.52
- pIC50 (second compound 3.16 µM): < 5.52
- pIC50 (second compound 10 µM): < 5.52
- viability, T/C (second compound 0.1 µM, first compound 0.00949 µM): 108%
- viability, T/C (second compound 0.1 µM, first compound 0.03 µM): 102%
- viability, T/C (second compound 0.1 µM, first compound 0.0949 µM): 111%
- viability, T/C (second compound 0.1 µM, first compound 0.3 µM): 122%
- viability, T/C (second compound 0.1 µM, first compound 0.949 µM): 114%
- viability, T/C (second compound 0.1 µM, first compound 3 µM): 98.3%
- viability, T/C (second compound 0.316 µM, first compound 0.00949 µM): 86.7%
- viability, T/C (second compound 0.316 µM, first compound 0.03 µM): 103%
- viability, T/C (second compound 0.316 µM, first compound 0.0949 µM): 117%
- viability, T/C (second compound 0.316 µM, first compound 0.3 µM): 115%
- viability, T/C (second compound 0.316 µM, first compound 0.949 µM): 101%
- viability, T/C (second compound 0.316 µM, first compound 3 µM): 90.3%
- viability, T/C (second compound 1 µM, first compound 0.00949 µM): 94%
- viability, T/C (second compound 1 µM, first compound 0.03 µM): 109%
- viability, T/C (second compound 1 µM, first compound 0.0949 µM): 101%
- viability, T/C (second compound 1 µM, first compound 0.3 µM): 123%
- viability, T/C (second compound 1 µM, first compound 0.949 µM): 116%
- viability, T/C (second compound 1 µM, first compound 3 µM): 94.1%
- viability, T/C (second compound 3.16 µM, first compound 0.00949 µM): 96.7%
- viability, T/C (second compound 3.16 µM, first compound 0.03 µM): 101%
- viability, T/C (second compound 3.16 µM, first compound 0.0949 µM): 112%
- viability, T/C (second compound 3.16 µM, first compound 0.3 µM): 129%
- viability, T/C (second compound 3.16 µM, first compound 0.949 µM): 105%
- viability, T/C (second compound 3.16 µM, first compound 3 µM): 86.1%
- viability, T/C (second compound 10 µM, first compound 0.00949 µM): 96.3%
- viability, T/C (second compound 10 µM, first compound 0.03 µM): 110%
- viability, T/C (second compound 10 µM, first compound 0.0949 µM): 104%
- viability, T/C (second compound 10 µM, first compound 0.3 µM): 116%
- viability, T/C (second compound 10 µM, first compound 0.949 µM): 94.9%
- viability, T/C (second compound 10 µM, first compound 3 µM): 91.3%
